Reference: ChEMBL document CHEMBL1201862, “PubChem BioAssay data set” (2004)
The source made the active and inactive calls.

Experiments:
[1] = viability loss in A549 lung cancer cells – cell-based, cherry-picks, […], cytotoxicity control, dose response (AID 1053119); format: functional
[2] = target: E3 ubiquitin-protein ligase UHRF1 (Homo sapiens, UniProt Q96T88); assay: Counterscreen for inhibitors of 5-meCpG-binding domain protein 2 (MBD2): TRFRET-based biochemical high throughput dose response assay to identify inhibitors of binding of ubiquitin-like with PHD and ring finger domains 1 (UHRF1) to methylated oligonucleotide.
Sequence of E3 ubiquitin-protein ligase UHRF1 (Q96T88 whole entry, the tested form may be a part): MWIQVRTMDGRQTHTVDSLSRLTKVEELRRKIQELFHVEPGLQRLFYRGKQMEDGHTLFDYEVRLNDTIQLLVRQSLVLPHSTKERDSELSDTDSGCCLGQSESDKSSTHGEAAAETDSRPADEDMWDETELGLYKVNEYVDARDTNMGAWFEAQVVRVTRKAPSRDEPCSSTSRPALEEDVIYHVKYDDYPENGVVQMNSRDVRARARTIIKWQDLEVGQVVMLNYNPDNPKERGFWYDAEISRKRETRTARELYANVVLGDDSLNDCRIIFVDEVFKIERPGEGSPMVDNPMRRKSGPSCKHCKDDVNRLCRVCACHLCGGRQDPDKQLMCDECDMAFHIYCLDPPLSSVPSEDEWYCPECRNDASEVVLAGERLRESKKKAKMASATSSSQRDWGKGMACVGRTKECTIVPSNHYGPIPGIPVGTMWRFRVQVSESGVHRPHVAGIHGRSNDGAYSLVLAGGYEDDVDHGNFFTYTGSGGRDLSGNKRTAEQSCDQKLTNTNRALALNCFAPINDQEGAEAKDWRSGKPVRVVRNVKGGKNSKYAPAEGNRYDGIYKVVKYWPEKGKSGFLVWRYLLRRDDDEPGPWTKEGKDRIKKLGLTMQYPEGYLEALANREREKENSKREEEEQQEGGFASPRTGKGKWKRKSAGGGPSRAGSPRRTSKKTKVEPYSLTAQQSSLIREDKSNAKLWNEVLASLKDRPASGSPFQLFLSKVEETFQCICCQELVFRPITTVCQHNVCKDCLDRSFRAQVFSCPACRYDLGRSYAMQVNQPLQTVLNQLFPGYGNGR

cells [3] = format: functional, cell-based
[4] = target: T1, Trace amine-associated receptor 1 (Homo sapiens, UniProt Q96RJ0); assay: Fluorescence-based cell-based high throughput dose response assay to identify agonists of the human trace amine associated receptor 1 (TAAR1).; format: functional
T1 sequence (Q96RJ0 whole entry): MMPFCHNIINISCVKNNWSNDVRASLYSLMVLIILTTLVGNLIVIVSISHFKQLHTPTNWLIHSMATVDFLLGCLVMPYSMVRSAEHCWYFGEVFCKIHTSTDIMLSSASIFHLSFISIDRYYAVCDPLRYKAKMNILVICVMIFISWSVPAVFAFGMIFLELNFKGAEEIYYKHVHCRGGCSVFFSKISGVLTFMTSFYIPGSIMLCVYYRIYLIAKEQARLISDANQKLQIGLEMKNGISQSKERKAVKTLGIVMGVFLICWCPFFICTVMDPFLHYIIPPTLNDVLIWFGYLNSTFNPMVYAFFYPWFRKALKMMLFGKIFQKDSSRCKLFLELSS

[5] = target: T1, Trace amine-associated receptor 1; assay: Counterscreen for agonists of the human trace amine associated receptor 1 (hTAAR1): Fluorescence-based cell-based high throughput dose response assay to identify hTAAR1 agonist that also desensitize TAAR1 receptor response.; format: functional
cells [6] = format: functional, cell-based; remark: listed apart in the source
[7] = target: T2, Eukaryotic translation initiation factor 2-alpha kinase 3 (Homo sapiens, UniProt Q9NZJ5); assay: Dose response cell-based high-throughput screening assay to measure PERK inhibition. [Related pubchem assays: 1416 ]; format: functional
T2 sequence (Q9NZJ5 whole entry): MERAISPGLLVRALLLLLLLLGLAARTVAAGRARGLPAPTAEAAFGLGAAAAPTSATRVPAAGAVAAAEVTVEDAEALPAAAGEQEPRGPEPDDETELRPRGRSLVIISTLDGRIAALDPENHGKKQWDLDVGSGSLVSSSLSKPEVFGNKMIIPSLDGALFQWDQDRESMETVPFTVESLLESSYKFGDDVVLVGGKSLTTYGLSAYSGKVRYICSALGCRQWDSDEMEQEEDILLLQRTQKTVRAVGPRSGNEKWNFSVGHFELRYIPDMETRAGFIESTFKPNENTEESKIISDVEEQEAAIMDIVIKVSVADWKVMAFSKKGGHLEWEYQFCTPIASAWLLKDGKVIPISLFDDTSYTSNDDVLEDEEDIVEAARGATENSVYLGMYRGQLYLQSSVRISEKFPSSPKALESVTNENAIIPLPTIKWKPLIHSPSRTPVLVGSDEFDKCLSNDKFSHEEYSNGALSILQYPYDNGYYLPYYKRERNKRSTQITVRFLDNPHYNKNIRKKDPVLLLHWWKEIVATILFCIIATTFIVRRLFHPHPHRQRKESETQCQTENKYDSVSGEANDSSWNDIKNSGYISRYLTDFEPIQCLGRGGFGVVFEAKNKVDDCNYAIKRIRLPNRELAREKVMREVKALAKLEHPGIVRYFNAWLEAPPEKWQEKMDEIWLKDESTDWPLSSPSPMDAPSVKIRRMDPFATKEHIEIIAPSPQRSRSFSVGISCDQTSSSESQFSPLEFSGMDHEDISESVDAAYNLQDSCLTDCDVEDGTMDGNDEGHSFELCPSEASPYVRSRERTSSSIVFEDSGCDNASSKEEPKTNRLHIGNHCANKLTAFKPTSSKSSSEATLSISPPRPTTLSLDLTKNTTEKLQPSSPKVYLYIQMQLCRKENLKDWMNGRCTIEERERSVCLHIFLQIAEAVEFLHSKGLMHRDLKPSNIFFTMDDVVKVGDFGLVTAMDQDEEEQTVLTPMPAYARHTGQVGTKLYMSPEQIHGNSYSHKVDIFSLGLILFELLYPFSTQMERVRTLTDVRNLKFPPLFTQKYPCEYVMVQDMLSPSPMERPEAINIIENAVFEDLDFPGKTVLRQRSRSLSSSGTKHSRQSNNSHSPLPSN

[8] = target: T2, Eukaryotic translation initiation factor 2-alpha kinase 3; assay: Counterscreen assay for PERK inhibitors: Dose response cell-based high throughput screening assay to measure inhibition of PERK at 6 hours. [Related pubchem assays: 1522, 1416 ]; format: functional
[9] = microbe, parasite or virus in culture; format: functional; settings: Mycobacterium tuberculosis
[10] = THP-1 cell cytotoxicity, dose response, cytotoxicity control for non-replicating M. tuberculosis project (AID 489025); format: functional
[11] = HepG2 cell cytotoxicity, dose response, cytotoxicity control for non-replicating M. tuberculosis project (AID 489018); format: functional; settings: Mycobacterium tuberculosis
Jurkat = assay: blockers of NF-kB activation in T cells – Jurkat, luciferase reporter, luminescence, B- and T-cell, dose response (AID 489004); format: functional, cell-based; settings: Homo sapiens;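 also: NF-kB luciferase reporter Jurkat cells stimulated with PMA plus ionomycin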
[12] = Vero E6 cell cytotoxicity, dose response, cytotoxicity control for non-replicating M. tuberculosis project, secondary assay (AID 492998); format: functional, VeroE6; settings: Vero C1008
[13] = HEK-293T viability loss, compound-treated – cell-based, uHTS hits, cytotoxicity control for B/T-cell NF-kB inhibitor project, dose response (AID 489019); format: functional;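 also: IC50 reflects cytotoxicity as loss of cell viability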
cells [14] = format: functional
P388/ADR = assay: cells; format: functional; settings: Mus musculus
SN12K1 = assay: cells; format: functional; settings: Homo sapiens
P388 = assay: cells; format: functional; settings: Mus musculus
[15] = reduced cellular PGC1a acetyl-lysine signal – cell-based, cherry-picked samples, dose response (AID 720514); format: functional;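 also: potency may reflect raised or lowered acetylation signal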
Albumin = Albumin (Bos taurus, UniProt P02769); assay: Counterscreen for inhibitors of T-cell receptor (TCR)-CD3 interaction: Fluorescence-based biochemical high throughput dose response assay to identify inhibitors of T-cell receptor (TCR)-CD3 interaction using a TAMRA-labeled BSA probe.; format: functional
Sequence of Albumin (P02769 whole entry): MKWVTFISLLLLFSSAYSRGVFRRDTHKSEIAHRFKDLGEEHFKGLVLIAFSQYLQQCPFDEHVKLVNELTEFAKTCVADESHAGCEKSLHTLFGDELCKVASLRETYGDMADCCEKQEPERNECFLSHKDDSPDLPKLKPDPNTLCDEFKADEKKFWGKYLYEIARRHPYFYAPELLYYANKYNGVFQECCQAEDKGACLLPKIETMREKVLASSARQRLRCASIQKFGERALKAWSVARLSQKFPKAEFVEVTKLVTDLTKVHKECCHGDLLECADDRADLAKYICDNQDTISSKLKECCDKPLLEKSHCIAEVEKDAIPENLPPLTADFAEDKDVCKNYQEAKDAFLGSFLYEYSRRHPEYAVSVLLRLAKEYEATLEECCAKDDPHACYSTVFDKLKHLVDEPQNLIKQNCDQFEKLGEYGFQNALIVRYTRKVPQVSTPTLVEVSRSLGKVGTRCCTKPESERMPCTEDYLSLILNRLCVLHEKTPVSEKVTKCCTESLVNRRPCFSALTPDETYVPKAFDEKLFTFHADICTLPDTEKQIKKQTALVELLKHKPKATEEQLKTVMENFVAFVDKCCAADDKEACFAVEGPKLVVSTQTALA

[16] = potency of ADAM10 substrate cleavage blockers – biochemical, QFRET, dose response (AID 743254);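 also: ADAM10 enzyme with the DM2 quenched FRET peptide as substrate; EDANS fluorescence gain as the protease cuts the substrate; inhibitor potency against ADAM10 proteolytic activity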
[17] = target: Disintegrin and metalloproteinase domain-containing protein 17 (Homo sapiens, UniProt P78536); assay: inhibition of ADAM17 substrate cleavage – biochemical, quenched FRET substrate, counter-screen for ADAM10 exosite inhibitor project, dose response (AID 743253)
Sequence of Disintegrin and metalloproteinase domain-containing protein 17 (P78536 whole entry, the tested form may be a part): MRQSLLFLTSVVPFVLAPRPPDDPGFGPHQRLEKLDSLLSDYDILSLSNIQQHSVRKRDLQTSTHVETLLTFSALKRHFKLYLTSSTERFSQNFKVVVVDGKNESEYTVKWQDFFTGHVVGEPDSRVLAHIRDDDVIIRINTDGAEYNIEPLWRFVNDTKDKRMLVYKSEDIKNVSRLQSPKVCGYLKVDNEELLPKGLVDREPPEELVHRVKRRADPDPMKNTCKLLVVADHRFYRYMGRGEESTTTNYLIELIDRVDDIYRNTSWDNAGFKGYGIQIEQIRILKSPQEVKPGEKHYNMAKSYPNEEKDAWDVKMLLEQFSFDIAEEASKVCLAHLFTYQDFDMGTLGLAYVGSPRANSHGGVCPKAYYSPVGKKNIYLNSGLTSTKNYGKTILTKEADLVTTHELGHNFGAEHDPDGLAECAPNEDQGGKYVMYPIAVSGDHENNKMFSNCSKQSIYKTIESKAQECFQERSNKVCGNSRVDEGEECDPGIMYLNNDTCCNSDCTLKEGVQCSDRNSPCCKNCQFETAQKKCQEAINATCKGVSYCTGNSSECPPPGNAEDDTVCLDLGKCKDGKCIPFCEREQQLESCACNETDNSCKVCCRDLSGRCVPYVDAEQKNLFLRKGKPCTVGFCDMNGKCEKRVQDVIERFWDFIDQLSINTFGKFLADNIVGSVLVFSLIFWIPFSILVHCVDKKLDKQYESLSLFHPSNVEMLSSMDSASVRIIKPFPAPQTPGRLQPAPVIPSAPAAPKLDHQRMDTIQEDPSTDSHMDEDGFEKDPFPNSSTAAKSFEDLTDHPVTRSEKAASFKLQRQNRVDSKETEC

[18] = viability loss in HepG2 liver cells – cell-based, ATP luminescence, cherry-pick, set 6, cytotoxicity control, dose response (AID 1053125); format: functional
cells [19] = settings: HEK293
Vero = assay: viability loss in Vero cells – cell-based, plate reader, cherry-pick samples, cytotoxicity control, dose response (AID 687020); format: functional; settings: Chlorocebus sabaeus
BHK-21 = assay: viability loss in BHK-21 cells – cell-based, plate reader, cherry-pick samples, cytotoxicity control, dose response (AID 687030); format: functional; settings: Mesocricetus auratus
A549 = assay: viability loss in A549 cells – cell-based, plate reader, cherry-pick samples, cytotoxicity control, dose response (AID 687028); format: functional; settings: Homo sapiens
[20] = TNFa-induced NF-kB reporter signal decrease – HEK293 LMP1 reporter cells, dry powder, set 2, selectivity assay for EBV LMP1 NF-kB inhibitor project, dose response (AID 624369); format: functional
[21] = viability loss in LCL cells – cell-based, plate reader, dry powder, set 2, cytotoxicity control, dose response (AID 624367); format: functional
Paired box protein Pax-8 = Paired box protein Pax-8 (Homo sapiens, UniProt Q06710); assay: PAX8 transcriptional activity inhibition in RMG-I – RMG-I cells, luciferase, cherry-pick, dose response (AID 687027); format: functional, cell-based;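 also: luciferase reporter driven by Pax8 target thyroperoxidase promoter measured by SteadyGlo luminescence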
Sequence of Paired box protein Pax-8 (Q06710 whole entry): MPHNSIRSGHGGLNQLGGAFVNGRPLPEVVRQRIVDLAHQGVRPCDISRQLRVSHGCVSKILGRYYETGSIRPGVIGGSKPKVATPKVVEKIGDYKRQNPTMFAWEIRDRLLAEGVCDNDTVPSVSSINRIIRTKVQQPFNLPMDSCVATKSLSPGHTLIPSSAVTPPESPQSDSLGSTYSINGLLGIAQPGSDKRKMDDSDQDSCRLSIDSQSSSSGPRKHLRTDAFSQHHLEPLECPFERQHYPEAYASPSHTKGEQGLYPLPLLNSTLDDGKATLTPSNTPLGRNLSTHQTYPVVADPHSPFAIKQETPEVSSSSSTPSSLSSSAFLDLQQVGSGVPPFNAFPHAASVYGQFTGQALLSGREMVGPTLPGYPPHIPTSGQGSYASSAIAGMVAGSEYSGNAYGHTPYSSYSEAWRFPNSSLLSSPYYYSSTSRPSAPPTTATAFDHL

[22] = A2780 cell killing – plate reader, dry powder samples, cytotoxicity control, dose response (AID 743046); format: functional, cell-based
[23] = target: Metabotropic glutamate receptor 3 (Rattus norvegicus, UniProt P31422); assay: inhibition of rat mGlu3 glutamate signaling – HEK/GIRK cells, thallium flux, dose response (AID 651839); format: functional
[24] = inhibitors of non-replicating M. tuberculosis, dose response, luciferase, dry powder (AID 651619); format: functional; settings: Mycobacterium tuberculosis
[25] = inhibitors of non-replicating M. tuberculosis, dose response, luciferase, dry powder (AID 651620); format: functional; settings: Mycobacterium tuberculosis
[26] = growth inhibition of replicating M. tuberculosis, dose response, counter-screen, dry powder, IC90 (AID 651617); format: functional; settings: Mycobacterium tuberculosis
[27] = cervical cancer cell viability loss – HeLa, 24 h, plate reader, powder samples, set 3, cytotoxicity control, dose response (AID 651864); format: functional, cell-based
[28] = cytotoxicity in MITF-independent A375 cells – cell-based, CellTiter-Glo luminescence, dry powder, set 4, counter-screen for MITF inhibitor project, dose response (AID 624364); format: functional; settings: A-375;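 also: A375 melanoma cells are MITF independent so this is a counter screen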
[29] = viability loss in MITF-independent A375 cells – cell-based, CellTiter-Glo luminescence, dry powder, set 2, counter-screen for MITF inhibitor project, dose response (AID 624489); format: functional; settings: A-375;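 also: actives are compounds lowering A375 viability meaning general cytotoxicity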
[30] = target: Protein disulfide-isomerase A6 (Homo sapiens, UniProt Q15084); assay: Secondary Assay for Selectivity of PDI Inhibitors (against ERp5) Measured in Biochemical System Using Plate Reader - 2137-04_Inhibitor_Dose_DryPowder_Activity_Set3.
Sequence of Protein disulfide-isomerase A6 (Q15084 whole entry): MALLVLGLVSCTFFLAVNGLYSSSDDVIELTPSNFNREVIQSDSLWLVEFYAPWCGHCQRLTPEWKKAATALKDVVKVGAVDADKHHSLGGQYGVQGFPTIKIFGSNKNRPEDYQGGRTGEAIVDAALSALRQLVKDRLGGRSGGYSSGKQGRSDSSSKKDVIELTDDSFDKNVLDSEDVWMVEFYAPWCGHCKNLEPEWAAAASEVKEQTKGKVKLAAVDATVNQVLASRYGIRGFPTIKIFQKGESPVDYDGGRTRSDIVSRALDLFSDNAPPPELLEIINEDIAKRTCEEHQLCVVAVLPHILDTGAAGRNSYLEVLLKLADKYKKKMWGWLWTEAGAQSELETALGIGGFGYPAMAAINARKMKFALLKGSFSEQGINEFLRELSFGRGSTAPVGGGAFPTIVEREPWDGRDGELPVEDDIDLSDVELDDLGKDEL

[31] = loss of viability in HeLa cells – cell-based, ATP luminescence, dry powder, cytotoxicity control, dose response (AID 652117); format: functional
[32] = target: Protein disulfide-isomerase (Homo sapiens, UniProt P07237); assay: inhibition of PDI-mediated insulin reduction – biochemical, turbidity, dry powder samples, set 2, confirmation (AID 652146)
Sequence of Protein disulfide-isomerase (P07237 whole entry): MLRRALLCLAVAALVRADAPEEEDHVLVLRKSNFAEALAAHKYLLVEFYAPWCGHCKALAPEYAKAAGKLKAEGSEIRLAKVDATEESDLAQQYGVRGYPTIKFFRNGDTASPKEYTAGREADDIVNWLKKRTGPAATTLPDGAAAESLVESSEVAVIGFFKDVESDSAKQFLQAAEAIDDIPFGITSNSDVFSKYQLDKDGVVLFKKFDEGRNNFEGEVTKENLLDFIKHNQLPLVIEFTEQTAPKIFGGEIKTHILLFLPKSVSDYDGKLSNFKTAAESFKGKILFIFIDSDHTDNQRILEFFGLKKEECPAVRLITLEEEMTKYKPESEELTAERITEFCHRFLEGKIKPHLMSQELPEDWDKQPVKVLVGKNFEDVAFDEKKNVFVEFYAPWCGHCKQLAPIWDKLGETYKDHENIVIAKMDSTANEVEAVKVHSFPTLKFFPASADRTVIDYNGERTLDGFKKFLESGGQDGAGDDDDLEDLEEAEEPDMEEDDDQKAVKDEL

[33] = kidney cell line viability loss – HEK293T, luminescence plate reader, powder samples, set 4, cytotoxicity control, dose response (AID 651863); format: functional, cell-based; settings: HEK293
[34] = target: Delta-type opioid receptor (Homo sapiens, UniProt P41143); assay: Late-stage results from the probe development effort to identify antagonists of OPRK1: fluorescence-based cell-based dose response OPRD1 counterscreen.; format: functional
Sequence of Delta-type opioid receptor (P41143 whole entry): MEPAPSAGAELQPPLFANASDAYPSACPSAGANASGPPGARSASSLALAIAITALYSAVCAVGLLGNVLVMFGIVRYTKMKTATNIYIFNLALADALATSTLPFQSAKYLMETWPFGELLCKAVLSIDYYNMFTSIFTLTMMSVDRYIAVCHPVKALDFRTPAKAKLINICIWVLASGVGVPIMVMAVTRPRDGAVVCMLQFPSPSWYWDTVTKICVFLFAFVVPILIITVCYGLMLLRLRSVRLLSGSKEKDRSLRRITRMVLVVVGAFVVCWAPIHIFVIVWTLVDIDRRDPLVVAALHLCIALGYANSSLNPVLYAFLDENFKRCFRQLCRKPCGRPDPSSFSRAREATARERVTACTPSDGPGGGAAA

Mu-type opioid receptor = Mu-type opioid receptor (Homo sapiens, UniProt P35372); assay: Late-stage results from the probe development effort to identify antagonists of OPRK1: luminescence-based cell-based dose response OPRM1 counterscreen.; format: functional
Sequence of Mu-type opioid receptor (P35372 whole entry): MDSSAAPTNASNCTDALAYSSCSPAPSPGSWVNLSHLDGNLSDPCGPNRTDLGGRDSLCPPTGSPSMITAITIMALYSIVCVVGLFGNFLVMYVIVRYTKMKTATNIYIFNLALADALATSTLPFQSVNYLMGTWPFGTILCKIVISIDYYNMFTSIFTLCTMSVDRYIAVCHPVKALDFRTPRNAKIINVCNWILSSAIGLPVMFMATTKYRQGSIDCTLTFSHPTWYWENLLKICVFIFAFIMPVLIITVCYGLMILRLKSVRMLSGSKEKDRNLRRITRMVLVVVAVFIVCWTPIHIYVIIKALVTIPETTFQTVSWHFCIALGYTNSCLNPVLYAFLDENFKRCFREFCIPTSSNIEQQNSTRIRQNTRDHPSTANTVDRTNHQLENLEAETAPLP

## O=C(CN1CCCC1)Nc1ccc(Oc2ccc(NC(=O)CN3CCCC3)cc2)cc1
[1]
  AC50: > 52 µM (inactive)

## NC1=C(c2nc3ccccc3s2)C(=O)CN1NC(=O)c1c[nH]c2ccccc12
[2]
  IC50: > 43.8 µM (inactive)

## O=C(CSC1=Nc2ccc(F)cc2S(=O)(=O)N1)NCCc1ccccc1
Cells [3]
  IC50: > 29.9 µM (inactive)
[4]
  EC50: 0.621 µM (active)
[5]
  IC50: 3.52 µM (active)
Cells [6]
  EC50: > 29.9 µM (inactive)

## COc1cccc2c1C(CO)N1C(C#N)C3CC(C(=O)O)C(C1C2)N3C (centres undefined)
[7]
  EC50: > 55.7 µM (not active)
[8]
  EC50: > 55.7 µM (not active)
[9]
  CC50: 0.194 µM (active)
[10]
  CC50: 0.153 µM (active)
[11]
  CC50: 0.925 µM (active)
Jurkat
  IC50: 0.34 µM (active)
[12]
  CC50: 0.33 µM (active)
[13]
  IC50: > 80 µM (inactive)
Cells [14]
  IC50: 2.76 µM (active)
P388/ADR
  GI50: < 0.0384 µM (active)
SN12K1
  GI50: 0.243 µM (active)
P388
  GI50: 0.416 µM (active)
[15]
  AC50: 20.1 µM (active)

## CN=C(S)NNC(=O)c1cccn(Cc2cccc(C(F)(F)F)c2)c1=O
Albumin
  IC50: > 94.1 µM (inactive)

## O=C1NCN(c2ccccc2)C12CCN(C(c1cccc3ccccc13)c1nnnn1Cc1ccccc1)CC2 (centres undefined)
[16]
  IC50: > 69.5 µM (inactive)
[17]
  IC50: > 69.5 µM (inactive)

## CC/C(C)=N\Nc1nc(-c2cc3cc(OC)ccc3oc2=O)cs1
[18]
  AC50: > 52 µM (inactive)
Cells [19]
  AC50: > 52 µM (inactive)

## CCCCN(C(C)=O)c1ccc2c(c1)C1CC2CCN1Cc1ccccc1 (centres undefined)
Vero
  AC50: 30.5 µM (active)
BHK-21
  AC50: 33.7 µM (active)
A549
  AC50: 30.3 µM (active)

## O=C(Nc1ccc(C(F)(F)F)cc1)Nc1ccc2c(c1)[C@H]1C[C@H](CC(=O)N3CCc4ccccc4C3)O[C@H](CO)[C@H]1O2
[20]
  AbsAC35: 66.25 µM
[21]
  AbsAC35: 42.44 µM
Paired box protein Pax-8
  AC50: 7.26 µM (active)
[22]
  AC50: 57.4 µM (active)

## COc1ccc(C#Cc2ccc(C(=O)N3CC[C@@H](O)C3)cc2)cc1
[23]
  IC50: 6.34 µM (active)

## c1ccc(-c2nnc(SCc3ccccn3)o2)cc1
[24]
  IC90: 4 µM (active)
[25]
  IC90: 4 µM (active)
[26]
  IC90: 16 µM (active)

## O=C(Cc1ccc(-c2ccccc2)cc1)NC1CCCCC1
[27]
  AC50: 109 µM (active)

## O=C1C(NS(=O)(=O)c2ccc(Br)cc2)=C(c2ccc(OC(F)(F)F)cc2)C(=O)c2ccccc21
[28]
  AC50: > 70 µM (inactive)
[29]
  AC50: > 70 µM (inactive)

## CC(C)(C)OC(=O)C1(CCOc2ccccc2)CCN(Cc2ccc(O)c(Cl)c2)CC1
[30]
  AC50: 30 µM (inactive)
[31]
  AC50: 34 µM (active)
[32]
  AC50: 0.6 µM (active)

## O=C(O)C1CCCCC1C(=O)N1CCc2ccccc2C1CN1C(=O)[C@H]2CCCC[C@H]2C1=O (some centres undefined)
[33]
  AC50: > 52 µM (inactive)

## COC(=O)c1cc(Cl)cnc1N1CCC(NC2CCCCC2)CC1
[34]
  IC50: 39 µM (inactive)
Mu-type opioid receptor
  IC50: 2 µM (active)
